Experimental data reported in patent publication US12655116B2, “Substituted isophthalic acid diamides” (Bayer Aktiengesellschaft, priority 2020, dated 2026).

Tests used:
ABUTH [1] = experiment: Pre-emergence herbicidal action against ABUTH; assay type: in vivo, Abutilon theophrasti; conditions: for Pre-emergence action against ABUTH (herbicidal activity) / pest or weed control at 80 g/ha: 80 g/ha, scored visually after 3 weeks vs untreated controls (100% = plants have died, 0% = like control plants); for Pre-emergence action against ABUTH (herbicidal activity in percent): dosage 20 g/ha, scored visually after 3 weeks vs untreated controls, 100% = plants have died, 0% = like control plants; for pest or weed control at 80 g/ha: Abutilon theophrasti, 504 h
How it was run: (§1)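 Sandy loam pots, seeds covered with soil, then surface-treated with WP or EC formulations at 600–800 l/ha water plus 0.2% wetting agent. Greenhouse, 3 weeks. Percent damage vs untreated controls.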

ALOMY [2] = experiment: Pre-emergence herbicidal action against ALOMY; assay type: in vivo, Alopecurus myosuroides; conditions: 80 g/ha, pre-emergence, scored visually after 3 weeks vs untreated controls (100% = plants have died, 0% = like control plants); for pest or weed control at 80 g/ha: Alopecurus myosuroides, 504 h
How it was run: as §1

AMARE [3] = experiment: Pre-emergence herbicidal action against AMARE; assay type: in vivo, Amaranthus retroflexus
How it was run: as §1

AVEFA = experiment: Pre-emergence herbicidal action against AVEFA; assay type: in vivo, Avena fatua; conditions: 80 g/ha, pre-emergence
How it was run: as §1

ECHCG [4] = experiment: Pre-emergence herbicidal action against ECHCG; assay type: in vivo, Echinochloa crus-galli; conditions: 80 g/ha
How it was run: as §1

MATIN [5] = experiment: Pre-emergence herbicidal action against MATIN; assay type: in vivo, Matricaria inodora; conditions: for pest or weed control at 20 g/ha / pest or weed control at 80 g/ha: Tripleurospermum inodorum, 504 h
How it was run: as §1

POLCO = experiment: Pre-emergence herbicidal action against POLCO; assay type: in vivo, Polygonum convolvulus; conditions: for pest or weed control at 80 g/ha: Fallopia convolvulus, 504 h
Description: Seeds of monocotyledonous and dicotyledonous weed plants and crop plants are laid out in sandy loam soil in wood-fiber pots and covered with soil. The compounds of the invention, formulated in the form of wettable powders (WP) or as emulsion concentrates (EC), are then applied to the surface of the covering soil in the form of an aqueous suspension or emulsion at a water application rate equivalent to 600 to 800 l/ha, with addition of 0.2% wetting agent. After the treatment, the pots are placed in a greenhouse and kept under good growth conditions for the trial plants. The damage to the test plants is scored visually after a test period of 3 weeks by comparison with untreated controls (herbicidal activity in percent (%): 100% activity=the plants have died, 0% activity=like control plants). […] The tables below illustrate, in an illustrative manner, the post-emergence herbicidal action of the compounds of the invention, the herbicidal activity being stated in percent.

SETVI [6] = experiment: Pre-emergence herbicidal action against SETVI; assay type: in vivo, Setaria viridis; conditions: for pest or weed control at 80 g/ha: Setaria viridis, 504 h
How it was run: as §1

VERPE [7] = experiment: Pre-emergence herbicidal action against VERPE; assay type: in vivo, Veronica persica; conditions: dosage 80 g/ha
How it was run: as §1

VIOTR [8] = experiment: Pre-emergence herbicidal action against VIOTR; assay type: in vivo, Viola tricolor
How it was run: as §1

DIGSA [9] = experiment: Pre-emergence herbicidal action against DIGSA; assay type: in vivo, Digitaria sanguinalis
How it was run: as §1

PHBPU = experiment: Post-emergence herbicidal action against PHBPU; assay type: in vivo, Pharbitis purpurea
How it was run: (§2)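 Visual % rating (0% = as untreated, 100% = dead) ~3 wk after spraying one-leaf-stage plants grown in sandy loam; WP/EC in water at 600–800 l/ha, 0.2% wetting agent.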

VIOTR [10] = experiment: Post-emergence herbicidal action against VIOTR; assay type: in vivo, Viola tricolor; conditions: 20 g/ha; for pest or weed control at 20 g/ha: Viola tricolor, 504 h
How it was run: as §2

ABUTH [11] = experiment: Post-emergence herbicidal action against ABUTH; assay type: in vivo, Abutilon theophrasti; conditions: visual assessment about 3 weeks after treatment vs untreated controls; for pest or weed control at 5 g/ha / pest or weed control at 20 g/ha: Abutilon theophrasti, 504 h
How it was run: as §2

ALOMY [12] = experiment: Post-emergence herbicidal action against ALOMY; assay type: in vivo, Alopecurus myosuroides; conditions: dosage 20 g/ha, visual assessment about 3 weeks after treatment vs untreated controls; for pest or weed control at 20 g/ha: Alopecurus myosuroides, 504 h
How it was run: as §2

AMARE [13] = experiment: Post-emergence herbicidal action against AMARE; assay type: in vivo, Amaranthus retroflexus; conditions: 20 g/ha, visual assessment about 3 weeks after treatment, 100% = plants have died, 0% = like control plants; for pest or weed control at 20 g/ha: Amaranthus retroflexus, 504 h
How it was run: as §2

SETVI [14] = experiment: Post-emergence herbicidal action against SETVI; assay type: in vivo, Setaria viridis; conditions: dosage 20 g/ha
How it was run: as §2

VERPE [15] = experiment: Post-emergence herbicidal action against VERPE; assay type: in vivo, Veronica persica; conditions: 20 g/ha; for pest or weed control at 20 g/ha: Veronica persica, 504 h
How it was run: as §2

ECHCG [16] = experiment: Post-emergence herbicidal action against ECHCG; assay type: in vivo, Echinochloa crus-galli
How it was run: as §2

MATIN [17] = experiment: Post-emergence herbicidal action against MATIN; assay type: in vivo, Matricaria inodora; conditions: dosage 20 g/ha
How it was run: as §2

DIGSA [18] = experiment: Post-emergence herbicidal action against DIGSA; assay type: in vivo, Digitaria sanguinalis; conditions: 20 g/ha
How it was run: as §2

[19] = 20 g/ha, scored visually after 3 weeks vs untreated controls, 100% = plants have died, 0% = like control plants
[20] = 80 g/ha, scored visually after 3 weeks vs untreated controls (100% = plants have died, 0% = like control plants)
[21] = Amaranthus retroflexus, 504 h, 80 g/ha, scored visually after 3 weeks vs untreated controls, 100% = plants have died, 0% = like control plants

SMILES | Pre-emergence action against ABUTH (herbicidal activity) (ABUTH [1]) | Pre-emergence action against ABUTH (herbicidal activity in percent) (ABUTH [1]) | Pre-emergence action against ALOMY (herbicidal activity) (ALOMY [2]) | Pre-emergence action against AMARE in % (AMARE [3]; [19]) | Pre-emergence action against AMARE in % (AMARE [3]; [20]) | Pre-emergence action against AVEFA in % (AVEFA) | Pre-emergence action against ECHCG in % (ECHCG [4]) | Pre-emergence action against MATIN in % (MATIN [5]; dosage 20 g/ha) | Pre-emergence action against MATIN in % (MATIN [5]; dosage 80 g/ha) | Pre-emergence action against POLCO in % (POLCO; dosage 80 g/ha) | Pre-emergence action against SETVI in % (SETVI [6]; dosage 80 g/ha) | Pre-emergence action against VERPE in % (VERPE [7]) | Pre-emergence action against VIOTR in % (VIOTR [8]; dosage 20 g/ha) | Pre-emergence action against VIOTR in % (VIOTR [8]; dosage 80 g/ha) | Pre-emergence action against DIGSA in % (DIGSA [9]; dosage 20 g/ha) | Pre-emergence action against DIGSA in % (DIGSA [9]; dosage 80 g/ha) | Post-emergence action against PHBPU in % (PHBPU; dosage 20 g/ha) | Post-emergence action against VIOTR in % (VIOTR [10]) | Post-emergence action against ABUTH in % (ABUTH [11]; dosage 20 g/ha) | Post-emergence action against ECHCG in % (ECHCG [16]; dosage 20 g/ha) | also measured
Cn1nnnc1NC(=O)c1ccc(Br)c(C(=O)NCC2CC2)c1Cl [Example 1-180] | 100% | 90% | 100% | 100% | 100% | 80% | 100% | 90% | 100% | 100% | 90% | 80% | 80% | 100% | 100% | 100% | 90% | 90% | – | – | Post-emergence action against PHBPU in % (PHBPU; dosage 5 g/ha): 90%
CNC(=O)c1c(OC)ccc(C(=O)Nc2nnnn2C)c1Cl [Example 1-354] | – | – | – | – | – | – | – | – | – | – | – | – | – | – | – | – | – | – | – | – | pest or weed control at 80 g/ha (ABUTH [1]): 100%; pest or weed control at 80 g/ha (ALOMY [2]): 80%; pest or weed control at 80 g/ha (AMARE [3]; [21]): 100%; pest or weed control at 20 g/ha (MATIN [5]; dosage 20 g/ha): 80%; pest or weed control at 80 g/ha (MATIN [5]; dosage 80 g/ha): 80%; pest or weed control at 80 g/ha (POLCO; dosage 80 g/ha): 80%; pest or weed control at 80 g/ha (SETVI [6]; dosage 80 g/ha): 90%; pest or weed control at 5 g/ha (ABUTH [11]; dosage 5 g/ha): 90%; pest or weed control at 20 g/ha (ABUTH [11]; dosage 20 g/ha): 100%; pest or weed control at 20 g/ha (ALOMY [12]): 80%; pest or weed control at 20 g/ha (AMARE [13]): 100%; pest or weed control at 20 g/ha (SETVI [14]; Setaria viridis, 504 h): 100%; pest or weed control at 20 g/ha (VERPE [15]): 90%; pest or weed control at 20 g/ha (VIOTR [10]): 90%
CCNC(=O)c1c(OC)ccc(C(=O)Nc2nnnn2C)c1Cl [Example 1-355] | – | – | – | – | – | – | – | – | – | – | – | – | – | – | – | – | – | – | – | – | pest or weed control at 80 g/ha (ABUTH [1]): 100%; pest or weed control at 80 g/ha (ALOMY [2]): 90%; pest or weed control at 20 g/ha (AMARE [3]; Amaranthus retroflexus, 504 h, 20 g/ha, scored visually after 3 weeks vs untreated controls, 100% = plants have died, 0% = like control plants): 100%; pest or weed control at 80 g/ha (AMARE [3]; [21]): 100%; pest or weed control at 20 g/ha (MATIN [5]; dosage 20 g/ha): 80%; pest or weed control at 80 g/ha (MATIN [5]; dosage 80 g/ha): 100%; pest or weed control at 80 g/ha (POLCO; dosage 80 g/ha): 80%; pest or weed control at 80 g/ha (SETVI [6]; dosage 80 g/ha): 90%; pest or weed control at 80 g/ha (VERPE [7]; Veronica persica, 504 h): 100%; pest or weed control at 80 g/ha (VIOTR [8]; Viola tricolor, 504 h, dosage 80 g/ha): 100%; pest or weed control at 5 g/ha (ABUTH [11]; dosage 5 g/ha): 80%; pest or weed control at 20 g/ha (ABUTH [11]; dosage 20 g/ha): 100%; pest or weed control at 20 g/ha (ALOMY [12]): 80%; pest or weed control at 20 g/ha (AMARE [13]): 100%; pest or weed control at 20 g/ha (ECHCG [16]; Echinochloa crus-galli, 504 h, dosage 20 g/ha): 90%; pest or weed control at 20 g/ha (PHBPU; Ipomoea purpurea, 504 h, dosage 20 g/ha): 80%; pest or weed control at 20 g/ha (VERPE [15]): 90%; pest or weed control at 20 g/ha (VIOTR [10]): 100%
CCn1nnnc1NC(=O)c1ccc(C(F)F)c(C(=O)NC)c1OC [Example 2-72] | 100% | 100% | 80% | 100% | 100% | – | 100% | 100% | 100% | 80% | 100% | 90% | 100% | 100% | 100% | 100% | 80% | 80% | 80% | 80% | Pre-emergence action against POLCO in % (POLCO; dosage 20 g/ha): 80%; Post-emergence action against ABUTH in % (ABUTH [11]; dosage 5 g/ha): 80%; Post-emergence action against ECHCG in % (ECHCG [16]; dosage 5 g/ha): 80%; Post-emergence action against MATIN in % (MATIN [17]): 80%; Post-emergence action against SETVI in % (SETVI [14]): 80%; Post-emergence action against VERPE in % (VERPE [15]): 80%
CCNC(=O)c1c(C(F)F)ccc(C(=O)Nc2nnc(C)o2)c1Br [Example 6-165] | 100% | – | 80% | 100% | 100% | – | 100% | 80% | 100% | 80% | 100% | – | 80% | 90% | 90% | 100% | – | 80% | 90% | 100% | Pre-emergence action against SETVI in % (SETVI [6]; dosage 20 g/ha): 90%; Post-emergence action against ALOMY in % (ALOMY [12]): 80%; Post-emergence action at 20 g/ha against AMARE in % (AMARE [13]): 80%; Post-emergence action against ECHCG in % (ECHCG [16]; dosage 5 g/ha): 90%; Post-emergence action against SETVI in % (SETVI [14]): 80%; Post-emergence action against DIGSA (DIGSA [18]): 90%
CCNC(=O)c1c(C(F)(F)F)ccc(C(=O)Nc2nnc(C)o2)c1CC [Example 6-211] | 100% | 90% | 90% | 100% | 100% | 80% | 100% | – | 90% | 90% | 100% | 80% | – | 80% | – | – | – | – | 90% | 90% | Post-emergence action against ABUTH in % (ABUTH [11]; dosage 5 g/ha): 80%; Post-emergence action at 20 g/ha against AMARE in % (AMARE [13]): 90%
